Measured values as given in the supplement of paper PMC10733146.

Legend:
Assay in all cases: viability relative to DMSO control (fraction); higher = less drug effect (more viable cells)
Conditions in all cases: 48 h
[1] = test system: primary AML patient cells (S012)
Procedure, shortened: (§1)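 The cells were primary mononuclear tumour cells, either fresh or cryopreserved, isolated by Ficoll from blood or bone marrow or derived from processed lymph node. Each well of a 384-well plate received 4 × 10^4 cells onto compounds pre-plated at five concentrations, with one well per concentration. The medium was RPMI-1640 with penicillin/streptomycin, L-glutamine and human serum, and plates stood at 37 °C and 5% CO2 for 48 h. Viability is reported as CellTiter-Glo luminescence relative to the median of 16 inner DMSO wells.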

[2] = test system: primary AML patient cells (S056)
Procedure, shortened: as §1

[3] = test system: primary AML patient cells (S072)
Procedure, shortened: as §1

[4] = test system: primary AML patient cells (S025)
Procedure, shortened: as §1

[5] = test system: primary AML patient cells (S009)
Procedure, shortened: as §1

[6] = test system: primary MCL patient cells (S063)
Procedure, shortened: as §1

[7] = test system: primary AML patient cells (S079)
Procedure, shortened: as §1

[8] = test system: primary T-PLL patient cells (S008)
Procedure, shortened: as §1

[9] = test system: primary MCL patient cells (S053)
Procedure, shortened: as §1

[10] = test system: primary FL patient cells (S022)
Procedure, shortened: as §1

[11] = test system: primary CLL patient cells (S043)
Procedure, shortened: as §1

[12] = test system: primary ALL patient cells (S048)
Procedure, shortened: as §1

[13] = test system: primary AML patient cells (S081)
Procedure, shortened: as §1

[14] = test system: primary AML patient cells (S021)
Procedure, shortened: as §1

[15] = test system: primary AML patient cells (S017)
Procedure, shortened: as §1

[16] = test system: primary AML patient cells (S002)
Procedure, shortened: as §1

[17] = test system: primary BL patient cells (S005)
Procedure, shortened: as §1

[18] = test system: primary MCL patient cells (S068)
Procedure, shortened: as §1

SMILES: CN1CC[C@H](c2c(O)cc(O)c3c(=O)cc(-c4ccccc4Cl)oc23)[C@H](O)C1 [Flavopiridol]
- viability ([1]; 0.0032 µM): 0.979
- viability ([1]; 0.016 µM): 0.904
- viability ([1]; 0.08 µM): 0.869
- viability ([1]; 0.4 µM): 0.151
- viability ([1]; 2 µM): 0.0418
- viability ([2]; 0.0032 µM): 0.928
- viability ([2]; 0.016 µM): 0.75
- viability ([2]; 0.08 µM): 0.367
- viability ([2]; 0.4 µM): 0.065
- viability ([2]; 2 µM): 0.0807
- viability ([3]; 0.0032 µM): 1.17
- viability ([3]; 0.016 µM): 1.05
- viability ([3]; 0.08 µM): 0.754
- viability ([3]; 0.4 µM): 0.156
- viability ([3]; 2 µM): 0.0607
- viability ([4]; 0.0032 µM): 0.958
- viability ([4]; 0.016 µM): 0.861
- viability ([4]; 0.08 µM): 0.691
- viability ([4]; 0.4 µM): 0.13
- viability ([4]; 2 µM): 0.0473
- viability ([5]; 0.0032 µM): 0.95
- viability ([5]; 0.016 µM): 0.898
- viability ([5]; 0.08 µM): 0.619
- viability ([5]; 0.4 µM): 0.199
- viability ([5]; 2 µM): 0.0899
- viability ([6]; 0.0032 µM): 0.987
- viability ([6]; 0.016 µM): 0.935
- viability ([6]; 0.08 µM): 0.887
- viability ([6]; 0.4 µM): 0.269
- viability ([6]; 2 µM): 0.0178
- viability ([7]; 0.0032 µM): 1.01
- viability ([7]; 0.016 µM): 0.979
- viability ([7]; 0.08 µM): 0.878
- viability ([7]; 0.4 µM): 0.112
- viability ([7]; 2 µM): 0.0261
- viability ([8]; 0.0032 µM): 0.953
- viability ([8]; 0.016 µM): 1.03
- viability ([8]; 0.08 µM): 0.916
- viability ([8]; 0.4 µM): 0.804
- viability ([8]; 2 µM): 0.0718
- viability ([9]; 0.0032 µM): 1.02
- viability ([9]; 0.016 µM): 0.938
- viability ([9]; 0.08 µM): 0.951
- viability ([9]; 0.4 µM): 0.469
- viability ([9]; 2 µM): 0.627
- viability ([10]; 0.0032 µM): 1.04
- viability ([10]; 0.016 µM): 0.958
- viability ([10]; 0.08 µM): 0.995
- viability ([10]; 0.4 µM): 0.227
- viability ([10]; 2 µM): 0.187
- viability ([11]; 0.0032 µM): 0.933
- viability ([11]; 0.016 µM): 1.02
- viability ([11]; 0.08 µM): 0.912
- viability ([11]; 0.4 µM): 0.265
- viability ([11]; 2 µM): 0.0335
- viability ([12]; 0.0032 µM): 0.998
- viability ([12]; 0.016 µM): 1
- viability ([12]; 0.08 µM): 1.1
- viability ([12]; 0.4 µM): 0.535
- viability ([12]; 2 µM): 0.0207
- viability ([13]; 0.0032 µM): 1.01
- viability ([13]; 0.016 µM): 0.873
- viability ([13]; 0.08 µM): 0.766
- viability ([13]; 0.4 µM): 0.0954
- viability ([13]; 2 µM): 0.0215
- viability ([14]; 0.0032 µM): 0.974
- viability ([14]; 0.016 µM): 0.852
- viability ([14]; 0.08 µM): 0.676
- viability ([14]; 0.4 µM): 0.292
- viability ([14]; 2 µM): 0.124
- viability ([15]; 0.0032 µM): 1
- viability ([15]; 0.016 µM): 0.986
- viability ([15]; 0.08 µM): 0.96
- viability ([15]; 0.4 µM): 0.18
- viability ([15]; 2 µM): 0.0397
- viability ([16]; 0.0032 µM): 1.02
- viability ([16]; 0.016 µM): 0.927
- viability ([16]; 0.08 µM): 0.69
- viability ([16]; 0.4 µM): 0.241
- viability ([16]; 2 µM): 0.244
- viability ([17]; 0.0032 µM): 0.794
- viability ([17]; 0.016 µM): 1.26
- viability ([17]; 0.08 µM): 0.644
- viability ([17]; 0.4 µM): 0.534
- viability ([17]; 2 µM): 0.983
- viability ([18]; 0.0032 µM): 0.98
- viability ([18]; 0.016 µM): 0.982
- viability ([18]; 0.08 µM): 0.82
- viability ([18]; 0.4 µM): 0.0704
- viability ([18]; 2 µM): 0.0301

SMILES: CCc1cnn2c(NCc3ccc[n+]([O-])c3)cc(N3CCCC[C@H]3CCO)nc12 [Dinaciclib]
- viability ([1]; 0.0016 µM): 1.1
- viability ([1]; 0.008 µM): 0.473
- viability ([1]; 0.04 µM): 0.0686
- viability ([1]; 0.2 µM): 0.0607
- viability ([1]; 1 µM): 0.0676
- viability ([2]; 0.0016 µM): 0.898
- viability ([2]; 0.008 µM): 0.0944
- viability ([2]; 0.04 µM): 0.101
- viability ([2]; 0.2 µM): 0.0868
- viability ([2]; 1 µM): 0.0937
- viability ([3]; 0.0016 µM): 0.979
- viability ([3]; 0.008 µM): 0.169
- viability ([3]; 0.04 µM): 0.0691
- viability ([3]; 0.2 µM): 0.0617
- viability ([3]; 1 µM): 0.065
- viability ([4]; 0.0016 µM): 0.976
- viability ([4]; 0.008 µM): 0.286
- viability ([4]; 0.04 µM): 0.063
- viability ([4]; 0.2 µM): 0.0602
- viability ([4]; 1 µM): 0.0589
- viability ([5]; 0.0016 µM): 1.06
- viability ([5]; 0.008 µM): 0.189
- viability ([5]; 0.04 µM): 0.0815
- viability ([5]; 0.2 µM): 0.0774
- viability ([5]; 1 µM): 0.0863
- viability ([6]; 0.0016 µM): 1
- viability ([6]; 0.008 µM): 0.0229
- viability ([6]; 0.04 µM): 0.0173
- viability ([6]; 0.2 µM): 0.0173
- viability ([6]; 1 µM): 0.0157
- viability ([7]; 0.0016 µM): 1
- viability ([7]; 0.008 µM): 0.153
- viability ([7]; 0.04 µM): 0.028
- viability ([7]; 0.2 µM): 0.0285
- viability ([7]; 1 µM): 0.0293
- viability ([8]; 0.0016 µM): 0.971
- viability ([8]; 0.008 µM): 0.736
- viability ([8]; 0.04 µM): 0.127
- viability ([8]; 0.2 µM): 0.128
- viability ([8]; 1 µM): 0.143
- viability ([9]; 0.0016 µM): 0.881
- viability ([9]; 0.008 µM): 0.534
- viability ([9]; 0.04 µM): 0.755
- viability ([9]; 0.2 µM): 0.9
- viability ([9]; 1 µM): 1.08
- viability ([10]; 0.0016 µM): 1.01
- viability ([10]; 0.008 µM): 0.227
- viability ([10]; 0.04 µM): 0.195
- viability ([10]; 0.2 µM): 0.216
- viability ([10]; 1 µM): 0.269
- viability ([11]; 0.0016 µM): 1.08
- viability ([11]; 0.008 µM): 0.0742
- viability ([11]; 0.04 µM): 0.0345
- viability ([11]; 0.2 µM): 0.0401
- viability ([11]; 1 µM): 0.0459
- viability ([12]; 0.0016 µM): 0.839
- viability ([12]; 0.008 µM): 0.127
- viability ([12]; 0.04 µM): 0.0333
- viability ([12]; 0.2 µM): 0.0246
- viability ([12]; 1 µM): 0.0268
- viability ([13]; 0.0016 µM): 1.02
- viability ([13]; 0.008 µM): 0.0549
- viability ([13]; 0.04 µM): 0.0232
- viability ([13]; 0.2 µM): 0.0223
- viability ([13]; 1 µM): 0.0211
- viability ([14]; 0.0016 µM): 1.38
- viability ([14]; 0.008 µM): 0.424
- viability ([14]; 0.04 µM): 0.161
- viability ([14]; 0.2 µM): 0.151
- viability ([14]; 1 µM): 0.139
- viability ([15]; 0.0016 µM): 0.994
- viability ([15]; 0.008 µM): 0.401
- viability ([15]; 0.04 µM): 0.0509
- viability ([15]; 0.2 µM): 0.0474
- viability ([15]; 1 µM): 0.0503
- viability ([16]; 0.0016 µM): 1.17
- viability ([16]; 0.008 µM): 0.272
- viability ([16]; 0.04 µM): 0.277
- viability ([16]; 0.2 µM): 0.265
- viability ([16]; 1 µM): 0.274
- viability ([17]; 0.0016 µM): 0.866
- viability ([17]; 0.008 µM): 0.792
- viability ([17]; 0.04 µM): 0.848
- viability ([17]; 0.2 µM): 0.867
- viability ([17]; 1 µM): 1.01
- viability ([18]; 0.0016 µM): 0.678
- viability ([18]; 0.008 µM): 0.0624
- viability ([18]; 0.04 µM): 0.0361
- viability ([18]; 0.2 µM): 0.0363
- viability ([18]; 1 µM): 0.0424
